Measurements: article PMC8019628, “Acetylcholinesterase Inhibitory and Antioxidant Activity of the Compounds Isolated from Vanda roxburghii” (Advances in Pharmacological and Pharmaceutical Sciences, 2021)
Converted amounts (≈) assume the structure as drawn. Like-named read-outs stand apart in the source and are kept apart here.

Assays:
[1] = test system: lipid peroxidation in mouse brain homogenate; test: Lipid peroxidation inhibition assay (TBARS); assay type: biochemical; conditions: ferric ion plus ascorbic acid, mean ± SD (n = 3)
Procedure: . Catechin was used as a reference antioxidant. Mouse brain homogenate was employed as the source of lipid which was prepared by homogenizing the brain in the phosphate buffer followed by centrifugation at 10,000 g. Lipid peroxidation was induced by ferric ion plus ascorbic acid. The TBARS produced from the reaction of lipid peroxides with thiobarbituric acid was determined colorimetrically at 532 nm. Results were presented as percentage of lipid peroxidation inhibition in relation to the control. The IC50 values were determined from the graph plotted as percent inhibition of lipid peroxidation against concentration of each compound.

[2] = Hydroxyl radical scavenging assay (deoxyribose degradation method); conditions: mean ± SD (n = 3)
Procedure: The potential of the compounds to scavenge the hydroxyl free radical was assayed by the deoxyribose degradation method as described by Elizabeth and Rao [23]. Catechin was used as a reference antioxidant. Compound at different concentrations was mixed with a reaction mixture containing 2.8 mM 2-deoxy-2-ribose, 20 mM phosphate buffer (pH 7.4), 100 μM FeCl3, 100 μM EDTA, 1.0 mM H2O2, and 100 μM ascorbic acid and incubated at 37°C for 1 hour. This was then followed by the addition of 2.8% trichloro acetic acid (TCA) and 1% TBA. The reaction mixture was heated on a boiling water bath. After cooling, the absorbance was measured at 532 nm against an appropriate blank solution. The result was expressed as percent scavenging of hydroxyl radical in relation to the control. The IC50 values were calculated from the graph plotted as percent scavenging of hydroxyl free radical against concentration of each compound.

[3] = Total antioxidant capacity (reduction of Mo (VI) to Mo (V)); conditions: 80 μg/ml, 695 nm, mean ± SD (n = 3)
Procedure: The antioxidant capacity of the compounds was assessed by the method as described earlier. The compound was added to a mixture of sulphuric acid (0.6 M), sodium phosphate (28 mM), and ammonium molybdate (4 mM) and heated in a water bath at 95°C for 90 min. After cooling to room temperature, the absorbance of the mixture was recorded at 695 nm against blank. A standard antioxidant catechin was used for comparison.

[4] = target: T1, AChE (Mus musculus, UniProt P21836); test: biochemical; conditions: for Z-factor of acetylcholinesterase inhibitory activity: assay performance of the compound versus control
T1 construct: The AChE enzyme was prepared from mouse brain as described earlier; from tissue; host or cells: brain of Swiss albino mice
T1 sequence (P21836 32-614): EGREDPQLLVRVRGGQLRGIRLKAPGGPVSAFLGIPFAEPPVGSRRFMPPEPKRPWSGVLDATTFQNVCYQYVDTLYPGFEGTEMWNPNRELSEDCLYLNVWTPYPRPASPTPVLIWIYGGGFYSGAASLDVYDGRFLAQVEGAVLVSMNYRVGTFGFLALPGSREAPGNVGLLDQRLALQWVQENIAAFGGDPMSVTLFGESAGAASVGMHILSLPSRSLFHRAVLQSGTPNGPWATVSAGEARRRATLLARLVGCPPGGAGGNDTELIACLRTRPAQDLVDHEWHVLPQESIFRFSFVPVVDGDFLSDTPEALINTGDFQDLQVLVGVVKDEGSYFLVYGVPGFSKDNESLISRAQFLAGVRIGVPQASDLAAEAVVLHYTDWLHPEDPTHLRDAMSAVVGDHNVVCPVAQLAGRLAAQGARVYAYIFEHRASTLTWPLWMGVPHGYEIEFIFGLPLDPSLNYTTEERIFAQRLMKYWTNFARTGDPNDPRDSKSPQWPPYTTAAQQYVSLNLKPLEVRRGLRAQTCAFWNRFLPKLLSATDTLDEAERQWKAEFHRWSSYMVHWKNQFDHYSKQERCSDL
Procedure: The AChE enzyme was prepared from mouse brain as described earlier. Compound at different concentrations was mixed with AChE solution and incubated at 37°C for 15 min. The rates of hydrolysis by AChE was monitored by spectrophotometer at 405 nm immediately after adding an Ellman's reaction mixture containing 0.5 mM acetylthiocholine and 1 mM 5, 5′-dithio-bis (2-nitro benzoic acid) (DTNB) in a 50 mM phosphate buffer (pH 8.0) to the above reaction mixture. […] The percentage inhibition of AChE activity was calculated using the following formula:(1) Absorbance of control−Absorbance of sample/Absorbance of control×100.
IC50 value could be calculated from the inhibition curve obtained by plotting the percent inhibition values against test concentrations of each compound.
Quality of assay was assessed by using Z' factor as follows:(2) Z′=1−3σc++σc−/μc+−μc−, where σc+ and σc−are the standard deviations of the positive and negative control and μc+ and μc−are the means of the positive and negative control, respectively.

[5] = DPPH radical scavenging assay; conditions: mean ± SD (n = 3)
Procedure: The DPPH radical scavenging ability of the compounds was estimated using the method described by Choi et al.. Catechin was used as a standard antioxidant for comparison. Compound at different concentrations was added to a methanolic solution of DPPH (0.135 mM) and vortexed and left for 30 minutes in the dark. The absorbance of the reaction mixture was measured spectrophotometrically at 517 nm. DPPH free radical scavenging ability (%) was calculated by using the following formula:(4) Absorbance of control−Absorbance of sample/Absorbance of control×100.
The result was presented as IC50 value which is the concentration required to cause 50% scavenging. The IC50 value was calculated from the graph plotted as percent scavenging of DPPH free radical against concentration of each compound.

[6] = Reducing power assay (Fe+3-ferricyanide reduction)
Procedure: The reducing power of the compounds was determined by the method of Oyaizu. The compound (1 ml) was added to a mixture of 0.2 M potassium buffer (2.5 ml) and 1% potassium ferricyanide (2.5 ml) and incubated at 50°C for 20 minutes. Then, 10% TCA solution (2.5 ml) was added to the reaction mixture and centrifuged (3000 rpm) for 10 minutes. Finally, 2.5 ml of solution was mixed with 2.5 ml of double distilled water and 0.5 ml of 0.1% ferric chloride solution. The absorbance of the reaction mixture was recorded at 700 nm. A standard antioxidant catechin was used for comparison.

[7] = 100 μg/ml, 700 nm (as stated in Figure 4 legend), mean ± SD (n = 3)
[8] = mouse brain AChE, acetylthiocholine substrate, mean ± SD (n = 3), read-out: IC50, inhibition of acetylcholinesterase activity (converted)

Compound	IC50, inhibition of lipid peroxidation [1]	IC50, hydroxyl radical scavenging [2]	Total antioxidant activity, absorbance [3]	IC50 [4]	Z-factor of acetylcholinesterase inhibitory activity [4]	IC50, DPPH radical scavenging [5]	Reducing power, absorbance ([6]; 80 μg/ml)	Reducing power, absorbance [6, 7]	IC50, inhibition of acetylcholinesterase activity ([4]; mouse brain AChE, acetylthiocholine substrate, mean ± SD (n = 3))	IC50 [4, 8]
COc1cc(C=O)ccc1O [Compound 3, vanillin]	57.02 ± 2.78 µg/mL	21.72 ± 0.87 µg/mL (≈ 143 µM)	0.716 ± 0.020	556 µM	0.91	19.64 ± 0.73 µg/mL (≈ 129 µM)	0.746 ± 0.005	0.746 ± 0.005		
CCCCC/C=C\C/C=C\CCCCCCCC(=O)OC [Compound 1, methyl linoleate]	no activity	no activity	no activity			no activity		no activity	no activity	
COc1cc(O)cc(CCc2ccc(O)c(OC)c2)c1 [Compound 5, gigantol]	32.28 ± 1.10 µg/mL	6.61 ± 0.76 µg/mL (≈ 24.1 µM)	0.848 ± 0.029		0.80	4.16 ± 0.37 µg/mL (≈ 15.2 µM)	1.865 ± 0.030	1.865 ± 0.030		2000 µM
COc1cc(C=O)cc(OC)c1O [Compound 2, syringaldehyde]	141.60 ± 6.19 µg/mL	91.05 ± 3.75 µg/mL (≈ 500 µM)	0.336 ± 0.009	6960 µM	0.80	40.64 ± 1.68 µg/mL (≈ 223 µM)	0.667 ± 0.035	0.667 ± 0.035		
COc1cc(CCCOC(=O)CCc2ccc(O)cc2)ccc1O [Compound 4, dihydroconiferyl dihydro-p-coumarate]	44.20 ± 1.01 µg/mL	15.07 ± 1.20 µg/mL (≈ 45.6 µM)	0.735 ± 0.022		0.87	12.16 ± 0.55 µg/mL (≈ 36.8 µM)	0.894 ± 0.014	0.894 ± 0.014		358 µM
O.Oc1cc(O)c2c(c1)O[C@H](c1ccc(O)c(O)c1)[C@@H](O)C2 [Catechin, reference compound]	14.10 ± 0.43 µg/mL	9.32 ± 0.39 µg/mL	1.739 ± 0.049			4.35 ± 0.09 µg/mL		1.964 ± 0.019		
